Data from publication PMC12812255 (ACS infectious diseases, 2025).
pIC50: −log10 of the molar value. Converted amounts (≈) assume the structure as drawn. Like-named read-outs stand apart in the source and are kept apart here.

Tests used:
[1] = biological target: T1, MtbADSL (Mycobacterium tuberculosis, UniProt I6XWA1); assay: PPDK-luciferase coupling Mtb ADSL enzyme assay; format: biochemical
[2] = biological target: T1, MtbADSL; assay: Fluorescence polarization; format: biochemical
[3] = biological target: coupling enzymes, PPDK and luciferase; assay: ADSL-free PPDK-luciferase coupling enzyme assay; format: biochemical, Clostridium symbiosum (PPDK); firefly (luciferase); details: read-out: IC50 ADSL-free; no ADSL, AMP 10 μM as substrate
[4] = biological target: T1, MtbADSL; assay: AMP-Glo Mtb ADSL assay; format: biochemical
[5] = biological target: T2, human ADSL (huADSL) (Homo sapiens, UniProt P30566); assay: Human ADSL PPDK-AMP assay; format: biochemical; details: for SI, selectivity index, IC50-human/IC50-Mtb: PPDK-coupling assay
T2 sequence (P30566 1-484): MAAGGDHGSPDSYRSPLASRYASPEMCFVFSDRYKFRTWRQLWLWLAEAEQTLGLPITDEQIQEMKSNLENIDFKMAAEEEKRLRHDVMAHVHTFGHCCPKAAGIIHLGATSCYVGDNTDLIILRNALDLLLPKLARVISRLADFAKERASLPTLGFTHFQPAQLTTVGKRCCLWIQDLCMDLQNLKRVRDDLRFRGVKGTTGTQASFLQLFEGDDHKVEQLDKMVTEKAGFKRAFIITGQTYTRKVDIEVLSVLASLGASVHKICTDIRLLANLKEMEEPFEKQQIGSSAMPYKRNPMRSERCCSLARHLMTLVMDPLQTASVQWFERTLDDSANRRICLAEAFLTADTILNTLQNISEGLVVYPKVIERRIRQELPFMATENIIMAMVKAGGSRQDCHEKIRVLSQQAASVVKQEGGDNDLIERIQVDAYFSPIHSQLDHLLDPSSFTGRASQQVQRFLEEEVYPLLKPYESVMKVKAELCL

[6] = test system: M. tuberculosis H37Ra; assay: Antibacterial susceptibility, broth dilution, AlamarBlue; format: cell-based; details: Mycobacterium tuberculosis, read-out: MIC H37Ra
[7] = test system: M. tuberculosis H37Rv; assay: Antibacterial susceptibility, OD600, MIC estimated as EC90; format: cell-based; details: Mycobacterium tuberculosis, read-out: MIC H37Rv (estimated by EC90)
[8] = biological target: T1, MtbADSL; assay: Protein thermal shift assay; format: binding; details: compound together with 4-HNE, 10 μM
[9] = biological target: T1, MtbADSL; assay: Gel-based thermal shift assay; format: binding; details: 15 or 30 μM compound, MtbADSL 5 μM
[10] = in vitro; details: human
[11] = in vitro; details: human, CC50 CCF-STTG1
[12] = test system: intracellular Mtb H37Ra in RAW264.7 macrophages; assay: Phagocytosis assay, intracellular bacterial load in RAW264.7 macrophages
[13] = test system: Mtb H37Ra; assay: AMP rescue assay; format: cell-based, Mycobacterium tuberculosis; details: compound at MIC, AMP 0-5 mM, 7 days
[14] = test system: Mycobacterium abscessus; details: cited from earlier work
[15] = Cytotoxicity CCK-8; details: human
[16] = test system: A549 cells; assay: Cytotoxicity CCK-8; details: at the MIC determined for H37Rv
[17] = Cytotoxicity CCK-8; details: human, HEK293 cells
[18] = Cytotoxicity CCK-8; details: human, CCF-STTG1 cells, CC50 CCF-STTG1, 48 h

Compound	pIC50 [1]	pIC50 [2]	pIC50 [3]	pIC50 [4]	pIC50 [5]	MIC ([6]; 168 h) [µg/mL]	MIC [6] [µM]	MIC [7] [µM]	Protection of MtbADSL from heat-induced denaturation and aggregation [9]	Reduction of intracellular Mtb growth ([12]; 5 μM)	Reduction of intracellular Mtb growth ([12]; 15 μM)	also measured
CCCCCC(O)/C=C/C=O (stereo not shown) [4-HNE, 4-hydroxynonenal]	–	–	–	–	–	–	–	–	–	–	–	pIC50 ([1]; read-out: IC50-Mtb PPDK, PPDK-luciferase coupling assay, SAMP 20 μM): 5.59
O=C(O)Cc1cc(I)c(Oc2cc(I)c(O)c(I)c2)c(I)c1 [Tetrac, tetraiodothyroacetic acid]	5.32	4.89	4.61	5.80	4.65	6.2	8.3	30 (≈ 22.4 µg/mL)	dose-dependent protection	~ 1 log	~ 2.5 log	SI, selectivity index, IC50-human/IC50-Mtb ([5]; listed as TT): 4.7; Reduction of Tm on co-incubation with 4-HNE [8]: ~ 0.6 °C; viability at 48 h [10]: ~71%; CC50 at 48 h [11]: > 200 µM
Oc1c(Cl)cc(Cl)cc1Sc1cc(Cl)cc(Cl)c1O [bithionol]	5.80	5.21	4.67	5.92	4.83	3.1	8.7	28 (≈ 9.97 µg/mL)	dose-dependent protection	~ 2.3 log	4.6 log	SI, selectivity index, IC50-human/IC50-Mtb [5]: 9.2; AMP concentration at which growth is rescued [13]: 5.0 mM; MIC against Mycobacterium abscessus [14]: 0.625 to 2.5 µM; CC50 at 48 h [15]: 32.4 µM; Reduction of A549 cell viability [16]: ~ 45%; CC50 at 48 h [17]: 19.3 µM; CC50 at 48 h [18]: ~139 µM
